Results published in patent US20110070215A1 (priority 2009, published 2011).

Tested on: DU-145 cells
Assay type: cell-based, human

C=C1[C@@H](C)[C@H]2[C@H](Cc3ccccc3)NC(=O)[C@]23[C@H](OC(C)=O)/C=C/[C@@](C)(O)C(=O)[C@@H](C)C/C=C/[C@H]3[C@@H]1O [Cytochalasin-D]
Relative Wound Density at 24 Hours, Mean: 3.3 ± 0.2 | Relative Wound Density at 24 Hours, Percent Relative to Media: 4% | effect on cell migration: did not migrate
